Source: patent publication US20060166933A1, “Novel 2H-chromene derivatives as selective estrogen receptor modulators” (priority 2004, published 2006)

What was measured:
[1] = molecular target: T1, human estrogen receptor α (Homo sapiens, UniProt P03372); test: Estrogen Receptor α Flash Plate Assay (binding of radiolabeled estrogen); settings: radiolabeled estrogen 0.5 nM, FlashPlate, 1 h room temperature; read-out: ER-α Binding
T1 construct: purchased Panvera
T1 sequence (P03372 1-595): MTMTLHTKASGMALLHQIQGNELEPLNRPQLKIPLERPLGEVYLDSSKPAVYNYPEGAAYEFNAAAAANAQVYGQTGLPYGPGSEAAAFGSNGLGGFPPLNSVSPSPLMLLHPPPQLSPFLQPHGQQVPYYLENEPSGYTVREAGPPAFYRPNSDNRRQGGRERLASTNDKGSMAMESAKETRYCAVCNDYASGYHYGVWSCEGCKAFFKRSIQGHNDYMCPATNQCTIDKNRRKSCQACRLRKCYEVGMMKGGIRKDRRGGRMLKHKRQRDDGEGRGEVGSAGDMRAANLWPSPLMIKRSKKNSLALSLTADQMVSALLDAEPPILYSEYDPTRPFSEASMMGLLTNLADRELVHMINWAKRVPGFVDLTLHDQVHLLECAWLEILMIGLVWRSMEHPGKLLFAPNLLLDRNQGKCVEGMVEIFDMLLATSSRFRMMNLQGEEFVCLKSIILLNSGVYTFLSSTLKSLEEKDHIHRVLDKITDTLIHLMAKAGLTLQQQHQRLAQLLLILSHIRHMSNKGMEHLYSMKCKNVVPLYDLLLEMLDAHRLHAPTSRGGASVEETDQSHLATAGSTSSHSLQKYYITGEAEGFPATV
Method: Estrogen Receptor α Flash Plate Assay
This assay monitors binding of radiolabeled estrogen to the estrogen receptor. It is performed on a BioMek 2000 (Beckman). Plates are read in a scintillation counter (Packard TopCount), with decreased counts an indication of binding of a compound to the receptor. The assay was run according to the procedure described by Allan, et al., Anal. Biochem. (1999), 275(2), 243-247.
On day one, 100 μL of Estrogen Screening Buffer (ESB, Panvera) containing 5 mM dithiothreitol (DTT, Panvera), 0.5 μg mouse anti-estrogen receptor monoclonal antibody (SRA-1010, Stressgen) and 50 ng purified human estrogen receptor a (Panvera) were added to each well of a 96 well FlashPlate Plus plate crosslinked with goat anti-mouse antibodies (NEN Life Sciences). The plate was sealed and incubated at 4° C. overnight.
On day two, each well was washed three times with 200 μL PBS, pH 7.2, at room temperature. To each well was then added 98 μL radiolabeled estrogen (0.5 nM, which equals 6 nCi for a 120 Ci/mmol batch, Amersham), diluted in ESB and 5 mM dithiothreitol (DTT). To individual wells were then added 2.5 μL test compound diluted in 30% (v/v) dimethyl sulfoxide/50 mM HEPES, pH 7.5. The wells were mixed three times by aspiration, the plate sealed and incubated at room temperature for one hour. The wells were then counted for 1 min in a TopCount scintillation counter (Packard).
(§1) Representative compounds of the present invention were tested according to the procedures described in Examples 23-24, above for binding to the estrogen-α and estrogen-β receptors, with results as listed in Table 2, below.

[2] = molecular target: T2, hER-β (Homo sapiens, UniProt Q92731); test: Estrogen Receptor β Fluorescence Polarization Assay (Fluormone ES2 displacement); settings: Fluormone ES2, 1 h room temperature, read-out: ER β-Binding
T2 construct: purchased Panvera
From the text: Estrogen Receptor β Fluorescence Polarization Assay
This assay monitors binding of a fluorescent analog of estrogen (Fluormone ES2, Panvera) to the estrogen receptor. Plates are read in a fluorometer that can be set to polarization mode. A decrease in […] relative to vehicle control is an indication of binding of a compound to the receptor.
It is crucial to avoid introduction of air bubbles into the reaction in each well of the 96 well plate throughout this procedure. (Bubbles on the surface of the reaction disrupt light flow, affecting the polarization reading.) However, it is also crucial to effectively mix the reaction components upon addition to the well.
On ice, a 2× standard mixture of Assay Buffer (Panvera), 10 nM DTT and 40 nM ES2 was prepared. On ice, a 2× reaction mixture of Assay Buffer (Panvera), and 20 nM hER-β (Panvera) and 40 nM ES2 was also prepared.
Dilutions of test compound were prepared in 30% (v/v) dimethyl sulfoxide/50 mM HEPES, pH 7.5. At this point, the dilutions were 40× the final required concentration.
The standard mixture at 50 μL was then added to each well. The reaction mixture at 48 μL was added to all wells. The compound dilution at 2.5 μL was added to the appropriate wells. The reaction mixtures were mixed using a manual pipette, a roll of aluminum foil adhesive cover was placed on the plate and the plate incubated at room temperature for 1 hour.
Each well on the plate was then read in an LjL Analyst with an excitation wavelength of […] and an emission wavelength of 538.
as §1

T2 sequence (Q92731 whole entry): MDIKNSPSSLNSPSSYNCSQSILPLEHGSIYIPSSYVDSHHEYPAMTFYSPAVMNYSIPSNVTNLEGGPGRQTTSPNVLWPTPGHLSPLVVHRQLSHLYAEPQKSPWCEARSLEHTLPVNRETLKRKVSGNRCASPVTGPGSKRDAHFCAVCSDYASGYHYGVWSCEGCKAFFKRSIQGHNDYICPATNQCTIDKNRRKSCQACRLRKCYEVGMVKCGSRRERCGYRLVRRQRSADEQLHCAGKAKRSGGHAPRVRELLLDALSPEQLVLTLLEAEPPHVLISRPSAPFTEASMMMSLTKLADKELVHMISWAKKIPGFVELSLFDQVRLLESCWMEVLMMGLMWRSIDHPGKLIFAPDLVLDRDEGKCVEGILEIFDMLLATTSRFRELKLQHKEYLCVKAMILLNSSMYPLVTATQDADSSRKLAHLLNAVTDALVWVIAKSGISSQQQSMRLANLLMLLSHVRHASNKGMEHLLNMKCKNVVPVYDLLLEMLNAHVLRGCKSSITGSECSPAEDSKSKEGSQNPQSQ

Row | Compound | IC50 [1] [nM] | IC50 [2] [nM]
1 | 4-(2-Hydroxy-ethyl)-2-[4-(2-piperidin-1-yl-ethoxy)-phenyl]-2H-chromen-7-ol [ID No. 6] | 500 | 500
2 | 4-Methyl-2-[4-(2-piperidin-1-yl-ethoxy)-phenyl]-2-H-chromen-7-ol [ID No. 4] | 2200 | > 10000
3 | CC1=C(COCC[Si](C)(C)C)[C@H](c2ccc(OCCN3CCCCC3)cc2)Oc2cc(O)ccc21 (single isomer, unassigned) [compound 3] | 180 | > 10000
4 | OCCC1=CC(c2ccc(OCCN3CCCCC3)cc2)Oc2cc(O)ccc21 (stereo not drawn) [compound 6] | > 10000 | > 10000
5 | Oc1ccc2c(c1)OC(c1ccc(OCCN3CCCCC3)cc1)C1=C2CCCCC1 (stereo not drawn) [compound 9] | 59 | 690
6 | Oc1ccc2c(c1)OC(c1ccc(OCCN3CCCCC3)cc1)C=C2C1CCCC1 (stereo not drawn) [compound 10] | 180 | 500
